The source of these data is patent US20020025929A1, “METHOD OF BUILDING AND MAINTAINING BONE” (priority 1997, published 2002).

Common to all, as to type: in vivo, Sprague-Dawley rats
For one test, the system named is osteopenic rats. Kind of test: Micro-CT of L-3 vertebra. As to conditions: continuous dosing, 1a 0.01-1 mg/kg, 17α-ethynyl estradiol 0.1 mg/kg, PTH (1-34), 1a 0.3 mg/kg with PTH (1-34), FIG. 3. On the procedure:
The metaphysis of proximal tibiae were scanned longitudinally from baseline, using a 960A pQCT loaded with Dichte software version 5.2 (Norland/Stratec, Ft. Atkinson, Wis.), using the technique described by Sato et al., —1995, JPET 272:1252-1259; Sato 1995, Bone 17:157S-162S). Volumetric bone mineral density (BMD, mg/cm3), cross-sectional area (X-Area), voxel number, and mineral content (BMC, mg) were quantitated for the whole cross-section of the metaphysis. Sites of excised bones were analyzed at higher resolution, using a micro-CT (Stratec). Specifically, distal femora (below the condyles, see Sato et al. 1995) and L-3 vertebra (mid-cross section, Helterbrand et al., 1997, Bone 21:401-409) were analyzed using voxel dimensions of 50 ×50×1000 μm and 70×70×1000 μm, respectively.
In a second study, virgin Sprague-Dawley rats were bilaterally ovariectomized (except for the sham-operated group), the ovariectomized animals randomized, and allowed to lose bone for one month prior to treatment in the manner described above. […]

Test [1] concerns osteopenic ovariectomized rats. Kind of test: Compression testing of L-6 vertebra. Conditions: OVX rats; for vertebral strength (Su) and toughness of L-6 vertebra (in words): continuous treatment (PTH 90 days); for Vert E (Young's modulus) / Vert u (toughness) / Vert σu (vertebral strength): lumbar vertebra in compression, mean ± SEM. As for the experimental part: Bone strength of L-6 vertebrae was measured after the posterior processes were removed and the ends of the centrum made parallel using a diamond wafering saw (Buehler Isomet, Evanston, Ill.). Ultimate stress (σu) Young's modulus (E), and toughness (u) for each vertebra was measured in compression at a load rate of 50 N/sec using the MTS machine. The compressive load was applied through a pivoting platen to correct for nonparallel alignment of the faces of the vertebral body (Turner and Burr, 1993).
Specimens were tested in saline solution at 37° C. Ultimate stress was calculated as the maximum load divided by the gross cross-sectional area πAB/4, where A and B are the vertebral widths in the anterior-posterior and medial lateral directions. Young's modulus was calculated by multiplying stiffness times 4T/πAB, where T is the specimen thickness. Toughness was calculated as the area under the load-displacement curve divided by πABT/4.
(§1) In a second study, virgin Sprague-Dawley rats were bilaterally ovariectomized (except for the sham-operated group), the ovariectomized animals randomized, and allowed to lose bone for one month prior to treatment in the manner described above. The animal groups, each containing 7-8 animals, included sham-operated animals (SHAM); bilaterally ovariectomized animals (OVX); bilaterally ovariectomized animals treated with 0.01, 0.3 or 1 mg/kg/day of compound 1a, respectively, for three months; bilaterally ovariectomized animals treated subcutaneously with PTH(1-34) at a dose of 10 μg/kg/day for three months; bilaterally ovariectomized animals treated subcutaneously with PTH(1-34) at a dose of 10 μg/kg/day and orally with compound 1a at a dose of 0.3 mg/kg/day, both compounds administered for three months; bilaterally ovariectomized animals treated subcutaneously with PTH(1-34) at a dose of 10 μg/kg/day for forty-five days followed by gavage administration of vehicle for forty-five days; bilaterally ovariectomized animals treated subcutaneously with PTH(1-34) at a dose of 10 μg/kg/day for forty-five days followed by oral administration of only compound 1a at a dose of 0.3 mg/kg/day for forty-five days; and bilaterally ovariectomized animals treated with 17α-ethynyl estradiol administered orally at a dose of 0.1 mg/kg/day.

The subject of test [2] is osteopenic ovariectomized rats. Kind of test: Femoral neck strength (shear loading of proximal femur). The arrangement: Neck Fu (ultimate force): unit not given beside the values. As to conditions: OVX rats; for Neck Fu (ultimate force): proximal femora in shear, mean ± SEM. As for the experimental part:
Femoral neck strength was measured by mounting the proximal half of the femur vertically in a chuck and applying downward force at a rate of 1 mm/sec on the femoral head until the neck failed. The ultimate load was calculated as the maximum force sustained by the femoral neck. All tests were done at room temperature using the MTS system.
as §1

The mark [3] stands for this setting: Cmpd. 1a 0.01 mg/kg/day oral, 3 months.
The mark [4] stands for this setting: Cmpd. 1a 0.3 mg/kg/day oral, 3 months.
Setting [5] is: Cmpd. 1a 1 mg/kg/day oral, 3 months.
Where [6] appears, read: 3 months: PTH (1-34) 10 μg/kg/day s.c., 1a 0.3 mg/kg/day oral + PTH, EE2 0.1 mg/kg/day oral.
[7] abbreviates: PTH (1-34) 10 μg/kg/day s.c. 45 days, then vehicle or 1a 0.3 mg/kg/day oral 45 days.

Marks after values point to notes of the source that are not given here.

In the case of `COc1ccc(-c2sc3cc(O)ccc3c2Oc2ccc(OCCN3CCCCC3)cc2)cc1` [Compound 1a, 6-hydroxy-2-(4-methoxyphenyl)-3-[4-(2-piperidin-1-ylethoxy)phenoxy]-benzo[b]thiophene], the “spinal BMD or BMC of L-3 vertebra (micro-CT)” value (“spinal BMD or BMC” below) in the test on osteopenic rats is reported as “marginal effects”. The “vertebral strength (Su) and toughness of L-6 vertebra (in words)” value in test [1] was “improved vertebral strength (Su) and toughness in a dose-dependent manner to above OVX”. For the same molecule, the results for the “Vert E (Young's modulus)” value in test [1] (setting [3]), in test [1] (setting [4]) and in test [1] (setting [5]) were 540 ± 72, 436 ± 76 and 384 ± 30, respectively. The “Vert u (toughness)” value in test [1] (setting [3]) is listed as 1.72 ± 0.44; in test [1] (setting [4]), 1.97 ± 0.37; in test [1] (setting [5]), 2.30 ± 0.29^o. In addition, the “Vert σu (vertebral strength)” value in test [1] (setting [3]) is given as 24.8 ± 2.3^s; in test [1] (setting [4]), 28.3 ± 1.9^o; in test [1] (setting [5]) it was 27.8 ± 1.5^o. Besides, the “Neck Fu (ultimate force)” value is listed as 112 ± 4.7 in test [2] (setting [3]), 114 ± 5.1 in test [2] (setting [4]) and 117 ± 3.1 in test [2] (setting [5]).

Take `C#C[C@]1(O)CC[C@H]2[C@@H]3CCc4cc(O)ccc4[C@H]3CC[C@@]21C` [EE2, 17α-ethynyl estradiol]: the “spinal BMD or BMC” value in the test on osteopenic rats is “marginal effects”. For the same molecule, in test [1] (setting [6]), the “Vert E (Young's modulus)” value is on record as 579 ± 94, the “Vert u (toughness)” value is reported as 1.44 ± 0.37 and the “Vert σu (vertebral strength)” value is on record as 28.1 ± 2.6^o. For the same molecule, the “Neck Fu (ultimate force)” value in test [2] (setting [6]) turned out to be 110 ± 6.1.

On to “PTH: N-terminal 1-34 fragment of human parathyroid hormone, hPTH(1-34, Sequence ID No. 3); PTH/vehicle = 45 days PTH then vehicle”, for which the “spinal BMD or BMC” value in the test with osteopenic rats is “improved BMD to significantly above OVX”. Also, in test [1] (PTH (1-34) discontinued after 45 days or switched to compound 1a), the “vertebral strength (Su) of L-6 vertebra (in words)” value was “lowered Su to below Sham”. For the same molecule, in test [1], the “vertebral strength (Su) and toughness of L-6 vertebra (in words)” value is “increased Su and toughness to above OVX and Sham levels”. Also, the “Vert E (Young's modulus)” value in test [1] (setting [6]) amounted to 686 ± 77; in test [1] (setting [7]), 524 ± 109. The “Vert u (toughness)” value is listed as 3.68 ± 1.10^s,o in test [1] (setting [6]) and 1.16 ± 0.22 in test [1] (setting [7]). The results for the “Vert σu (vertebral strength)” value in test [1] (setting [6]) and in test [1] (setting [7]) were 45.5 ± 2.4^s,o and 24.2 ± 2.5^s, respectively. Also, in test [2], the “ultimate load for the femora neck (in words)” value is “higher than OVX and Sham”. Moreover, the “Neck Fu (ultimate force)” value in test [2] (setting [6]) is recorded as 148 ± 2.6^s,o; in test [2] (setting [7]), 116 ± 6.2.
